Measured values as given in publication PMC5075052, “Modulation of the Substitution Pattern of 5-Aryl-2-Aminoimidazoles Allows Fine-Tuning of Their Antibiofilm Activity Spectrum and Toxicity” (Antimicrobial Agents and Chemotherapy, 2016).
Read-outs that look alike come from different tables or passages of the source.

Columns and labels:
[1] = tested on: CsgD; conditions: S. Typhimurium, first 24 h of biofilm formation; cited from earlier work
[2] = tested on: P. aeruginosa PAO1; conditions: cited from earlier work
[3] = tested on: P. aeruginosa PA14; assay: Monospecies bacterial biofilm inhibition, static peg assay; assay type: cell-based, Pseudomonas aeruginosa
Description: (§1) A static peg assay, described previously ([27], [74]), was used for bacterial biofilm formation. The Calgary biofilm device consists of a platform carrying 96 polystyrene pegs (Nunc no. 445497) that fits as a microtiter plate lid, with 1 peg hanging into each microtiter plate well (Nunc no. 269789). Twofold serial dilutions of the compounds (dissolved in 100% dimethyl sulfoxide [DMSO] or ethanol) in 100 μl liquid broth (TSB diluted 1/20) per well were prepared in the microtiter plate in duplicate or triplicate with a maximum concentration of 1,600 μM and a minimum concentration of 0.8 μM. Subsequently, an overnight culture of S. Typhimurium ATCC 14028, P. aeruginosa PA14, E. coli TG1, S. epidermidis, S. aureus SH1000, or S. aureus ATCC 6538 (all grown in LB) was diluted 1:100 into TSB diluted 1/20 (or TSB for S. epidermidis, S. aureus SH1000, and S. aureus ATCC 6538), whereas overnight cultures of S. liquefaciens MG44 and B. cepacia LMG1222T were diluted 1:50 into TSB diluted 1/20. P. gingivalis ATCC 33277 cultures were diluted in TSB diluted 1/20 to have a final concentration of 1 × 10^8 cells/ml. Next, 100 μl was added to each well of the microtiter plate, resulting in a total volume of 200 μl medium per well (final concentration range of compounds, 800 μM [2% DMSO or ethanol] to 0.4 μM [0.001% DMSO or ethanol]). In the next step, the pegged lid was placed on the microtiter plate and the plate was incubated for 24 h or 48 h at 25°C or 37°C without shaking. At 37°C, the plates were placed in a sealed container with wet towels on the bottom to prevent evaporation of the growth medium. Biofilms of P. gingivalis ATCC 33277 were grown anaerobically at 37°C for 72 h. During this incubation period, biofilms were formed on the surface of the pegs. After incubation, the optical density at 600 nm (OD600) for the planktonic cells in the microtiter plate was measured using a Synergy MX multimode reader (BioTek, Winooski, VT). This gives a first indication of the effect of the compounds on planktonic growth. For quantification of biofilm formation, the pegs were washed once in 200 μl PBS. The remaining attached bacteria were stained for 30 min with 200 μl 0.1% (wt/vol) crystal violet in an isopropanol-methanol-PBS solution (1:1:18, vol/vol). Excess stain was rinsed off by placing the pegs in a 96-well plate filled with 200 μl distilled water per well. After air drying of the pegs (30 min), the dye bound to the adherent biofilm was extracted with 30% glacial acetic acid (200 μl per well of a 96-well plate). The optical density at 570 nm (OD570) of each well was measured using a Synergy MX multimode reader (BioTek, Winooski, VT). The concentration of each compound needed to inhibit biofilm formation by 50% (BIC50) and the concentration of each compound needed to inhibit planktonic growth by 50% (IC50) were determined from the concentration gradient by using nonlinear curve fitting (GraphPad Prism software, version 5; GraphPad Software, Inc., La Jolla, CA). In the same assay, the effect on planktonic growth was evaluated. The activity was considered biofilm specific if the BIC50 was at least two times lower than the IC50. Data represent the means from at least 3 technical repeats with the corresponding 95% confidence intervals (provided in the supplemental material).

[4] = tested on: C. albicans SC5314; assay: Inhibition of C. albicans biofilms, CellTiter-Blue quantification; assay type: cell-based, Candida albicans; conditions: C. albicans SC5314, 37°C, CTB method, read-out: BIC50 (μM) for C. albicans SC5314 (37°C)
Description: The potential of the compounds to prevent C. albicans SC5314 biofilm formation was assessed using the CellTiter-Blue (CTB) quantification method ([75]). […]. Twofold serial dilutions of the compounds (dissolved in 100% DMSO or ethanol) in 100 μl RPMI 1640 medium per well were prepared in a round-bottom polystyrene 96-well microtiter plate (TPP; Trasadingen, Switzerland) in duplicate or triplicate with a maximum concentration of 1,600 μM and a minimum concentration of 0.8 μM. One hundred microliters of the cell suspension was added to each well of the microtiter plate, resulting in a total volume of 200 μl medium per well (final concentration range of compounds, 800 μM [2% DMSO or ethanol] to 0.4 μM [0.001% DMSO or ethanol]). After 16 h of static incubation at 37°C, the biofilms were washed and quantified by the CTB method as described previously ([73]).

[5] = tested on: S. Typhimurium ATCC 14028; assay: Monospecies bacterial biofilm inhibition, static peg assay; assay type: cell-based, Salmonella enterica serovar Typhimurium; conditions: S. Typhimurium ATCC 14028, 25°C
Description: as §1

[6] = tested on: E. coli TG1; assay: as above; assay type: cell-based, Escherichia coli
Description: as §1

[7] = tested on: S. liquefaciens MG44; assay: as above; assay type: cell-based, Serratia liquefaciens; conditions: S. liquefaciens MG44, 25°C
Description: as §1

[8] = tested on: S. aureus ATCC 6538; assay: Monospecies bacterial biofilm inhibition, static peg assay (Calgary device, crystal violet; planktonic OD600); assay type: cell-based, Staphylococcus aureus
Description: as §1

[9] = tested on: S. aureus SH1000; assay: Monospecies bacterial biofilm inhibition, static peg assay; assay type: cell-based, Staphylococcus aureus
Description: as §1

[10] = tested on: B. cepacia LMG1222T; assay: as above; assay type: cell-based, Burkholderia cepacia; conditions: 25°C
Description: as §1

[11] = tested on: S. epidermidis; assay: as above; assay type: cell-based, Staphylococcus epidermidis; conditions: 37°C
Description: as §1

[12] = tested on: E. coli VR50; set-up: method as in PMID 23208606, PMID 19959627; conditions: cited from earlier work
[13] = tested on: E. coli F18; set-up: method as in PMID 23208606, PMID 19959627; conditions: cited from earlier work
[14] = tested on: S. aureus SH1000; set-up: method as in PMID 23208606, PMID 19959627; conditions: cited from earlier work
[15] = Pseudomonas aeruginosa, PA14, P. aeruginosa PA14, 25°C, read-out: BIC50
[16] = Pseudomonas aeruginosa, PA14, P. aeruginosa PA14, 25°C, read-out: IC50 (planktonic growth)
[17] = Salmonella enterica, read-out: BIC50
[18] = Salmonella enterica, read-out: IC50 (planktonic growth)
[19] = Escherichia coli, TG1, E. coli TG1, 25°C, read-out: BIC50
[20] = Escherichia coli, TG1, E. coli TG1, 25°C, read-out: IC50 (planktonic growth)
[21] = Serratia liquefaciens, read-out: BIC50
[22] = Serratia liquefaciens, read-out: IC50 (planktonic growth)
[23] = Staphylococcus aureus, ATCC6538, read-out: BIC50 (concentration needed to inhibit biofilm formation by 50%), S. aureus ATCC 6538, 37°C
[24] = Staphylococcus aureus, ATCC6538, read-out: IC50 (concentration needed to inhibit planktonic growth by 50%), S. aureus ATCC 6538, 37°C, planktonic OD600
[25] = Staphylococcus aureus, SH1000, S. aureus SH1000, 37°C, read-out: BIC50
[26] = Staphylococcus aureus, SH1000, S. aureus SH1000, 37°C, read-out: IC50 (planktonic growth)
[27] = Burkholderia cepacia, read-out: BIC50
[28] = Burkholderia cepacia, read-out: IC50 (planktonic growth)
[29] = Staphylococcus epidermidis, read-out: BIC50
[30] = Staphylococcus epidermidis, read-out: IC50 (planktonic growth)
[31] = read-out: IC50 (planktonic growth)

Compound | concentration at which biofilm formation is inhibited [2] [µM] | IC50 [3, 15] [µM] | IC50 [3, 16] [µM] | IC50 ([4]; Candida albicans) [µM] | IC50 [5, 17] [µM] | IC50 [5, 18] [µM] | IC50 [6, 19] [µM] | IC50 [6, 20] [µM] | IC50 [7, 21] [µM] | IC50 [7, 22] [µM] | IC50 [8, 23] [µM] | IC50 [8, 24] [µM] | IC50 [9, 25] [µM] | IC50 [9, 26] [µM] | IC50 [10, 27] [µM] | IC50 [10, 28] [µM] | IC50 [11, 29] [µM] | IC50 [11, 30] [µM] | other results
Nc1ncc(-c2ccccc2)[nH]1 [5-phenyl-2-aminoimidazole] |  |  |  |  |  |  |  |  |  |  |  |  |  |  |  |  |  |  | effect on transcription of CsgD and regulon genes csgB and adrA [1]: reduces the transcription of CsgD
O=c1cc(-c2ccccc2)oc2cc(O)c(O)c(O)c12 [Baicalein, reference compound] | 20 | > 400 | > 400 | 273 | > 400 | > 400 | 1.2 | ~23.5 | > 400 | > 400 | > 400 | > 400 | 77.5 | > 400 | 48.9 | > 400 | > 400 | > 400 | 
O=C(N/N=C/c1ccc([N+](=O)[O-])o1)c1ccc(O)cc1 [Nifuroxazide, reference compound] | 70 | > 400 | > 400 | > 400 | > 400 | > 400 | 12.2 | > 400 | > 400 | > 400 | 65.5 | 125 | > 400 | > 400 | > 400 | > 400 | 46.9 | ~43.4 | 
Tannic acid [reference compound] |  |  |  |  |  |  |  |  |  |  |  |  |  |  |  |  |  |  | IC50 ([3]; P. aeruginosa PA14, 25°C, read-out: BIC50): 27.7 µM; IC50 ([3]; P. aeruginosa PA14, 25°C, read-out: IC50 (planktonic growth)): > 400 µM; IC50 [4]: > 400 µM; IC50 ([5]; read-out: BIC50): 18.8 µM; IC50 [5, 31]: > 400 µM; IC50 ([6]; E. coli TG1, 25°C, read-out: BIC50): ~195 µM; IC50 ([6]; E. coli TG1, 25°C, read-out: IC50 (planktonic growth)): > 400 µM; concentration at which biofilm formation is inhibited [12]: 20 µM; IC50 ([7]; read-out: BIC50): > 400 µM; IC50 [7, 31]: > 400 µM; IC50 ([8]; S. aureus ATCC 6538, 37°C, planktonic OD600, read-out: IC50 (concentration needed to inhibit planktonic growth by 50%)): > 400 µM; IC50 ([8]; S. aureus ATCC 6538, 37°C, read-out: BIC50 (concentration needed to inhibit biofilm formation by 50%)): ~300 µM; concentration at which biofilm formation is inhibited [13]: 20 µM; IC50 ([9]; S. aureus SH1000, 37°C, read-out: BIC50): 115 µM; IC50 ([9]; S. aureus SH1000, 37°C, read-out: IC50 (planktonic growth)): > 400 µM; IC50 ([10]; read-out: BIC50): 1.9 µM; IC50 [10, 31]: > 400 µM; IC50 ([11]; read-out: BIC50): > 400 µM; IC50 [11, 31]: > 400 µM; concentration at which biofilm formation is inhibited [14]: 20 µM
